In patent publication US20230077723A1, “N-SUBSTITUTED-3,4-(FUSED 5-RING)-5-PHENYL-PYRROLIDINE-2-ONE COMPOUNDS AS INHIBITORS OF ISOQC AND/OR QC ENZYME” (Scenic Immunology B.V., priority 2019, published 2023):
pIC50: −log10 of the molar value.

Assays:
human isoQC (S53-L382) [1] = biological target: T1, human isoQC (S53-L382) (Homo sapiens, UniProt Q9NXS2); assay: Assay 2 - isoQC potency, mass spectrometry-based enzymatic potency assay; type: biochemical; details: mass spectrometry read-out, 7.5 nM isoQC, 10 μM H-Gln-AMC; read-out: isoQc Pot. Assay No. 2
T1 construct: enzymatically active region of human isoQC (S53-L382; see, e.g., Huang et al., 2011); GST-Enterokinase site (N, cleaved yes); made in house; host or cells: E. coli
T1 sequence (Q9NXS2 53-382): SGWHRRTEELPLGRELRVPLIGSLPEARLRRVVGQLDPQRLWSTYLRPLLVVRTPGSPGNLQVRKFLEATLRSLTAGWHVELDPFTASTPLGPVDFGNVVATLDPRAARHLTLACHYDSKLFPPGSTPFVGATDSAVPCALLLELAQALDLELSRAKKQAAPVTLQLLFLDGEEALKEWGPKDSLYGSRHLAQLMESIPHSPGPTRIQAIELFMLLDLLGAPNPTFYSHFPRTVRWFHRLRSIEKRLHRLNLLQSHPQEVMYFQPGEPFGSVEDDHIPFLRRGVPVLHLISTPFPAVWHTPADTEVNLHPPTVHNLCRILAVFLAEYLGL
Procedure: (§1) The Golgi luminal, enzymatically active region of human isoQC (S53-L382; see, e.g., Huang et al., 2011) was obtained by expression in E. coli of an N-terminally GST-Enterokinase and C-terminally 6×His tagged construct in the pET41(+) vector and subsequent purification using talon beads and GST beads, enterokinase digestion and further purification with a final formulation in 25 mM Tris pH 8.0/150 mM NaCl/1 mM TCEP. Absence of pyroglutamylating activity in an enzymatic dead variant that was cloned, expressed, and purified in parallel ruled out that the purification strategy isolates any endogenously present pyroglutamylating activity.
(§2) EC50's of test compounds were determined by incubating 11-point two-fold dilutions of test compound in 20 μL volumes in the presence of 7.5 nM isoQC and 10 μM H-Gln-AMC using 50 mM Tris-HCl pH 8.0 as assay buffer for 2 hours at room temperature before stopping the reaction by the addition of 2 volumes of methanol. Both the substrate and the product of this reaction were read out using an Agilent RapidFire microfluidic solid phase sample extraction system coupled to an AB Sciex API 4000 triple quadrupole mass spectrometer, in negative ion mode, at m/z of 301.9 and 284.9 respectively. The actual readout was defined as P/(S+P), where P is the product signal area and S the substrate signal area. EC50's were calculated by four parameter sigmoidal model fitting.

human isoQC (S53-L382) [2] = biological target: T1, human isoQC (S53-L382); assay: Assay 1 - isoQC inhibition, fluorescent enzymatic assay (single concentration); type: biochemical; details: isoQC inhibition at 250 nM test compound; read-out: isoQc Inh. Assay No. 1
Procedure: Initially, isoQC inhibitory activity was measured at a single concentration in a fluorescent-based assay (Assay 1 below). In order to establish the inhibitory activity more quantitatively, IC50 values were obtained using a mass spectrometry-based assay where pyroglutamylation by either isoQC or QC was measured (Assays 2 and 4, respectively, below). Alternatively, IC50 values for isoQC or QC were obtained using a fluorescence-based assay (Assays 3 and 5 respectively, below).
as §1
Pyroglutamylation was measured by conversion of glutamine-4-amino-7-methylcoumarine (H-Gln-AMC, Bachem) to pyroglutamyl-AMC, which is subsequently a specific substrate for pyroglutamylaminopeptidase (pGAPase, Qiagen), releasing free AMC which can be fluorescently detected. For a typical inhibition assay, 15 μL 20 μM h-Gln-AMC (diluted from a 40 mM stock dissolved in 25 mM HEPES using 50 mM Tris-HCl pH 8.0) was pipetted into a 96-well plate on ice. Next, 7.5 μL 1 μM test compound (diluted from a 10 mM stock dissolved in DMSO using 50 mM Tris-HCl) was added. Finally, 7.5 μL, 3 ng/μL recombinant isoQC enzyme was added and the reaction mixture was incubated for 1 hour at 37° C. A 5 minute incubation at 98° C. was then performed to denature the isoQC enzyme and stop the reaction.
To detect the amount of pyroglutamyl-AMC formed, a 96-well plate was prepared with 25 μL 0.125 U/mL pGAPase enzyme diluted in 50 mM Tris-HCl pH 8.0 containing 10 mM dithiothreitol (DTT). 25 μL of the pyroglutamylation reaction mixture was transferred into the plate containing the pGAPase solutions while on ice. Once done, the plate was moved over to a Spectramax ID3 fluorescent plate-reader to monitor and record the maximum fluorescence at 380 nm excitation/450 nm emission over a period of 20 minutes while keeping the temperature at 37° C.
DMSO concentrations during the assay never exceeded 1% and activities were compared to controls containing only the same amount of DMSO and no test compound. […] Test compounds were reported as active when <40% of background corrected signal was measured as compared to DMSO controls.

recombinant human QC = biological target: T2, recombinant human QC (Homo sapiens, UniProt Q16769); assay: Assay 4 - QC potency, mass spectrometry-based enzymatic potency assay; type: biochemical; details: mass spectrometry read-out; read-out: QC Pot. Assay No. 4
T2 construct: His6 (N); purchased R&D Systems
T2 sequence (Q16769 29-361): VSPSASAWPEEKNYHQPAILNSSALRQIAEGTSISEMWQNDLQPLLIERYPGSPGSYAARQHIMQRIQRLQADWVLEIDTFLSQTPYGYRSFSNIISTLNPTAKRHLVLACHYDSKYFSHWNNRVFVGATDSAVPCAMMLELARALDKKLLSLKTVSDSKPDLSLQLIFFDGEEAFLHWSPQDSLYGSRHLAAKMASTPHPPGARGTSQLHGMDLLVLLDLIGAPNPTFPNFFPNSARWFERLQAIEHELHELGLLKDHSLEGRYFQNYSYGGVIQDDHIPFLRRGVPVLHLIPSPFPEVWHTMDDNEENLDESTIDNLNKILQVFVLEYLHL
Procedure: as §2
EC50's of test compounds were determined in the same way as described in Assay 2 above, except that N-terminally His6-tagged recombinant human QC (R&D Systems) was used instead of isoQC.

[3] = test system: pyroglutamylated CD47 (pE-CD47) in KBM7 cells; assay: Assay 6 - cell-based potency assay (pE-CD47 CC2C6 staining vs total CD47); design: species or system human; details: Homo sapiens, KBM-7, 72 h, CC2C6 signal, read-out: Cell Pot. Assay No. 6
Procedure: Cells were spun for 4 minutes at 1500 rpm and washed once with PBS/0.5% BSA. Cells were spun down again and the supernatant was removed and incubated in 100 uL antibody staining solution (PBS/0.5% BSA/0.1 μg/mL DAPI (4′,6-diamidino-2-phenylindole, ThermoFisher Scientific) and a mixture of 1:500 FITC-conjugated anti-human CD47 clone 2D3, which recognizes total CD47 irrespective of its pyroglutamylation state, and 1:500 Alexa647-conjugated anti-human CD47 clone CC2C6, which specifically detects pyroglutamylated CD47) for 2 hours at 4° C. Next, the cells were spun down and washed twice with 2×150 μL PBS/0.5% BSA to remove unbound antibody. Cells were again spun down and taken up in 300 μL FACS buffer before analysis on a Celesta FACS machine (BD Biosciences).
KBM7 cells (Kotecki et al., 1999) were infected with lentivirus produced by transfecting pSCNC-LentiCRISPR-QPCTL or pSCNC-LentiCRISPR-CD47 into HEK-293T cells according to standard protocols. After 24 hours incubation, cells were selected with puromycin (Invivogen, 1 μg/mL) for 48 hours. Cells were stained for total CD47 and pE-CD47 and QPCTL k.o. cells were sorted out as negative for pE-CD47, and CD47 k.o. cells as negative for total CD47, using a FACSAria III and FACS Diva software (BD Biosciences).
In order to test compounds for their effect on pyroglutamylation in live cells, 25000 KBM7 cells per well were seeded in a 96-well U-bottom plate in 150 μl IMDM/10% FCS/1% Pen/Strep medium and a 10-point 2-fold dilution range of test compounds. After 72 hours incubation at 37° C., 5% CO2, cells were stained for total CD47 and pE-CD47 and analyzed on a BD Celesta using FACS Diva software (BD Biosciences). Cells gated for DAPI negativity were recorded and the median fluorescence intensity (MFI) of each sample was transformed to linearly scale between the MFI's of wildtype and CD47 knockout cells (in case of the 2D3 antibody) and the wildtype and QPCTL knockout cells (in case of the CC2C6 antibody). IC50's were calculated by 3 parameter logistic regression of the CC2C6 signal vs. compound concentration, where the top of the sigmoidal curve was fixed at 1, using R and the drc package (http://www.r-project.org, https://cran.r-project.org/web/packages/drc/index.html).

SMILES | pIC50 (human isoQC (S53-L382) [1]) | inhibition at 0.25 µM (human isoQC (S53-L382) [2]) [%] | pIC50 (recombinant human QC) | pIC50 [3]
Cc1c2c(nn1C)C(=O)N(c1ccc3[nH]cnc3c1)C2c1cccc(F)c1F (stereo not drawn) [FRPPO-012] | > 7.60 | > 40 | 7.00 to 7.60 | > 6.00
Cc1c2c(nn1C)C(=O)N(c1ccc3[nH]cnc3c1)C2c1ccc(-c2ccccn2)cc1 (stereo not drawn) [FRPPO-014] | > 7.60 | > 40 | 7.00 to 7.60 | 5.30 to 6.00
Cc1c2c(nn1C)C(=O)N(c1ccc3[nH]cnc3c1)C2c1ccc(N2CCS(=O)(=O)CC2)cc1 (stereo not drawn) [FRPPO-027] | > 7.60 | > 40 | > 7.60 | 5.30 to 6.00
Cc1c2c(nn1C)C(=O)N(c1ccc3[nH]cnc3c1)C2c1ccc(N2CCC(F)(F)C2)cc1F (stereo not drawn) [FRPPO-028A] | > 7.60 | > 40 | 7.00 to 7.60 | > 6.00
Cc1c2c(nn1C)C(=O)N(c1ccc3[nH]cnc3c1)C2c1ccc(N2CCCC2=O)cc1 (stereo not drawn) [FRPPO-016] | > 7.60 | > 40 | 7.00 to 7.60 | 4.30 to 5.30
CCCOc1ccc(C2c3c(nn(C)c3C)C(=O)N2c2ccn3ccnc3c2)cc1 (stereo not drawn) [FRPPO-009] | 7.00 to 7.60 | > 40 | 5.30 to 7.00 | 5.30 to 6.00
COc1ccc(C2c3c(nn(C)c3C)C(=O)N2c2ccc3[nH]cnc3c2)cc1O (stereo not drawn) [FRPPO-018] | > 7.60 | > 40 | > 7.60 | 4.30 to 5.30
Cc1c2c(nn1C)C(=O)N(c1ccc3[nH]cnc3c1)C2c1ccc(OCC(C)(F)F)c(F)c1F (stereo not drawn) [FRPPO-019] | 7.00 to 7.60 | > 40 | > 7.60 | > 6.00
Cc1c2c(nn1C)C(=O)N(c1ccc3[nH]cnc3c1)C2c1cc(F)cc(F)c1F (stereo not drawn) [FRPPO-013] | 7.00 to 7.60 | > 40 | 7.00 to 7.60 | 5.30 to 6.00
Cc1c2c(nn1C)C(=O)N(c1ccc3[nH]cnc3c1)C2c1ccc(N2CCCCC2=O)cc1 (stereo not drawn) [FRPPO-017] | 7.00 to 7.60 | > 40 | 7.00 to 7.60 | ≤ 4.30
Cc1c2c(nn1C)C(=O)N(c1ccc3[nH]cnc3c1)C2c1ccc(N2CCC(C)(C)C2=O)cc1 (stereo not drawn) [FRPPO-010] | 7.00 to 7.60 | > 40 | 7.00 to 7.60 | 5.30 to 6.00
Cc1c2c(nn1C)C(=O)N(c1ccc3[nH]cnc3c1)C2c1ccc2nsnc2c1 (stereo not drawn) [FRPPO-020] | > 7.60 | > 40 | 7.00 to 7.60 | 5.30 to 6.00

Next, values leading:

pIC50 (human isoQC (S53-L382) [1]) | inhibition at 0.25 µM (human isoQC (S53-L382) [2]) [%] | pIC50 (recombinant human QC) | pIC50 [3] | SMILES
7.00 to 7.60 | > 40 | 5.30 to 7.00 | > 6.00 | CCCOc1ccc(C2c3c(nn(C)c3C3CC3)C(=O)N2c2ccc3[nH]cnc3c2)cc1 (stereo not drawn) [FRPPO-006]
5.30 to 7.00 | > 40 | 5.30 to 7.00 | 5.30 to 6.00 | CCCOc1ccc(C2c3c(nn(C(C)C)c3C)C(=O)N2c2ccc3[nH]cnc3c2)cc1 (stereo not drawn) [FRPPO-030]
5.30 to 7.00 | ≤ 40 | 5.30 to 7.00 | 5.30 to 6.00 | CCCOc1ccc(C2c3c(nn(CC(F)F)c3C)C(=O)N2c2ccc3[nH]cnc3c2)cc1 (stereo not drawn) [FRPPO-032]
7.00 to 7.60 | > 40 | 5.30 to 7.00 | 5.30 to 6.00 | CCCOc1ccc(C2c3c(nn(COC)c3C)C(=O)N2c2ccc3[nH]cnc3c2)cc1 (stereo not drawn) [FRPPO-031]
5.30 to 7.00 | > 40 | 5.30 to 7.00 | 5.30 to 6.00 | CCCOc1ccc(C2c3c(nn(C4CCOCC4)c3C)C(=O)N2c2ccc3[nH]cnc3c2)cc1 (stereo not drawn) [FRPPO-035]
5.30 to 7.00 | > 40 | 5.30 to 7.00 | 5.30 to 6.00 | CCCOc1ccc(C2c3c(nn(CC4CC4)c3C)C(=O)N2c2ccc3[nH]cnc3c2)cc1 (stereo not drawn) [FRPPO-034]
7.00 to 7.60 | > 40 | 5.30 to 7.00 | > 6.00 | CCCOc1ccc(C2c3c(nn(CC)c3C)C(=O)N2c2ccc3[nH]cnc3c2)cc1 (stereo not drawn) [FRPPO-029]
7.00 to 7.60 | > 40 | 5.30 to 7.00 | > 6.00 | CCCOc1ccc(C2c3c(nn(C)c3C)C(=O)N2c2ccc3[nH]cnc3c2)c(C)c1 (stereo not drawn) [FRPPO-003]
7.00 to 7.60 | > 40 | 7.00 to 7.60 | > 6.00 | CCCOc1ccc(C2c3c(nn(C)c3CC)C(=O)N2c2ccc3[nH]cnc3c2)cc1 (stereo not drawn) [FRPPO-007]
